Reference: paper PMC8807600, “Catalytic trajectory of a dimeric nonribosomal peptide synthetase subunit with an inserted epimerase domain” (Nature Communications, 2022)

B1: PchE (dihydroaeruginoic acid synthetase, NRPS elongation module of the pyochelin pathway) (enzyme)
chain: MDLPPDSRTALRDWLTEQLADLLGEPLADVRALADDDDLLGCGLDSIRLMYLQERLRARGSTLDFAQLAQRPCLGAWLDLLACADRLSAPATVALPTAQDRDQPFELSSVQQAYWLGRGAGEVLGNVSCHAFLEFRTRDVDPQRLAAAAECVRQRHPMLRARFLDGRQQILPTPPLSCFDLQDWRTLQVDEAERDWQALRDWRAHECLAVERGQVFLLGLVRMPGGEDRLWLSLDLLAADVESLRLLLAELGVAYLAPERLAEPPALHFADYLAHRAAQRAEAAARARDYWLERLPRLPDAPALPLACAPESIRQPRTRRLAFQLSAGESRRLERLAAQHGVTLSSVFGCAFALVLARWSESAEFLLNVPLFDRHADDPRIGEVIADFTTLLLLECRMQAGVSFAEAVKSFQRNLHGAIDHAAFPALEVLREARRQGQPRSAPVVFASNLGEEGFVPAAFRDAFGDLHDMLSQTPQVWLDHQLYRVGDGILLAWDSVVGLFPEGLPETMFEAYVGLLQRLCDSAWGQPADLPLPWAQQARRALLNGQPACATARTLHRDFFLRAAEAPDADALLYRDQRVTRGELAERALRIAGGLREAGVRPGDAVEVSLPRGPQQVAAVFGVLAAGACYVPLDIDQPPARRRLIEEAAGVCLAITEEDDPQALPPRLDVQRLLRGPALAAPVPLAPQASAYVIYTSGSTGVPKGVEVSHAAAINTIDALLDLLRVNASDRLLAVSALDFDLSVFDLFGGLGAGASLVLPAQEQARDAAAWAEAIQRHAVSLWNSAPALLEMALSLPASQADYRSLRAVLLSGDWVALDLPGRLRPRCAEGCRLHVLGGATEAGIWSNLQSVDTVPPHWRSIPYGRPLPGQAYRVVDTHGRDVPDLVVGELWIGGASLARGYRNDPELSARRFVHDAQGRWYRTGDRGRYWGDGTLEFLGRVDQQVKVRGQRIELGEVEAALCAQAGVESACAAVLGGGVASLGAVLVPRLAPRAEGSMDLPAAQPFAGLAEAEAVLTREILGALLEAPLELDDGLRRRWLDWLADSAASALPSLDEALRRLGWQAAGLTAMGNALRGLLAGEQAPAALLLDPWLAPQAVAARLPDGREALARLLEALPTPAAGERLRVAVLDTRAGLWLDQGMASLLRPGLELTLFERSRVLLDAAATRLPERIVVQALDDGLLPAEHLGRYDRVISFAALHAYEASREGLALAAALLRPQGRLLLVDLLCESPLALLGAALLDDRPLRLAELPSLLADLAAAGLAPRCLWRSERIALVEALAPGLGLDAAALQAGLEQRLPQAMRPERLWCLPSLPLNGNGKVDRRRLAESMTRALGECRHEPSAEEPLEAHEQALAECWEAVLKRPVRRREASFFSLGGDSLLATRLLAGIRERFGVRLGMADFYRQPTLAGLARHLQVQTVEIEETQLEEGVL
modifications: phosphopantetheine (pPant) arms on the ArCP and PCP domains; salicyl-pPant or hydroxyphenylthiazolinyl-pPant seen in some conformations
notes: also called Strep II-tagged PchE; source: E. coli BAP1, purified (Strep-Tactin resin, Superose 6 Increase size exclusion)

What was measured:
[1] = target: PchD (Pseudomonas aeruginosa, UniProt Q9HWG3); conditions: 10 uM PchE, 10 uM PchD, 10 uM SrfD, 5 mM cysteine, 1 mM salicylate, 5 mM ATP, 10 mM MgCl2, 50 mM Tris pH 7.9, 25 C, 2.5 h; PchD loads salicylate onto ArCP of PchE (coupled read-out)
[2] = target: the molecule itself; test: cryo-EM structure; PchE reacted with PchD (0.5:1), salicylate, cysteine, ATP, MgCl2, then purified on Superose 6 Increase in 50 mM Tricine pH 8.0, 1 mM MgCl2; ~4 mg/mL with 1 mM cysteine and ATP; three conformations at 2.97, 3.78 and 3.47 Å

Sequence of PchD (Q9HWG3 whole entry): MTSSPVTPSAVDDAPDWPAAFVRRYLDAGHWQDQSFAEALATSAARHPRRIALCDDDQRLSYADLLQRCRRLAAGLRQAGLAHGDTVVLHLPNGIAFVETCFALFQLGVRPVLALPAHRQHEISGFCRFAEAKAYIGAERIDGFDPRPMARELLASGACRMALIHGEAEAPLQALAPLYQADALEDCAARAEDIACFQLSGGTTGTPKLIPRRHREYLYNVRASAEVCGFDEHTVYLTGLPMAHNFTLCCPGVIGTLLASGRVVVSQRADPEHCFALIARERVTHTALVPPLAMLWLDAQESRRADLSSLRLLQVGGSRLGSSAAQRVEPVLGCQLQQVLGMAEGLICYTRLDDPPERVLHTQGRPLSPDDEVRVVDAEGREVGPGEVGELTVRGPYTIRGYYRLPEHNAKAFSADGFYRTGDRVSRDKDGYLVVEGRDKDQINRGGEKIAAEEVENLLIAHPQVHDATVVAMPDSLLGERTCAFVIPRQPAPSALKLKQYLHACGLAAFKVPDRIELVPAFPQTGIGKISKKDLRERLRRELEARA

Row | Molecule | in vitro reconstitution, HPLC and LC-MS of products [1] | stoichiometry N [2]
1 | O=C(O)c1ccccc1O [salicylate] | PchD is responsible for loading salicylate onto the ArCP domain of PchE | –
2 | B1 | – | 2
